Entries after “also recorded” stand apart in the source; their conditions may differ.
Key:
Type in all cases: biochemical
LYPLA2 = target: T1, LYPLA2 (Mus musculus, UniProt Q9WTL7); assay: Gel-based competitive ABPP in vitro, mouse brain membrane proteome; conditions: 30 min, one replicate; for inhibition at 0.1 µM: 0.1 μM compound, read-out: LYPLA2 % INH 0.1 μM; for inhibition at 1 µM: 1 μM compound, read-out: LYPLA2 % INH 1 μM; for inhibition at 10 µM: 10 μM compound, read-out: LYPLA2 % INH 10 μM; for inhibition at 100 µM: 100 μM compound, read-out: LYPLA2 % INH 100 μM
T1 construct: a complex proteome endogenously expressing LYPLA1/2 was incubated with test compound; from tissue; host or cells: mouse brain, membrane fraction
T1 sequence (Q9WTL7 whole entry): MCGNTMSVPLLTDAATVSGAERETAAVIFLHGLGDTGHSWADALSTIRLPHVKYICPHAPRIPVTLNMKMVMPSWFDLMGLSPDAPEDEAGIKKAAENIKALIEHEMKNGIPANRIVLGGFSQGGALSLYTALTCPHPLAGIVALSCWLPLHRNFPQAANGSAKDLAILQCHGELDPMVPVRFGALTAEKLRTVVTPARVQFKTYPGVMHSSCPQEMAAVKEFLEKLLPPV
Experimental: (§1) Assay Overview: The purpose of this assay was to determine whether test compounds can inhibit LYPLA1 and LYPLA2 in a complex proteomic lysate and to assess anti-target inhibition using a competitive activity-based proteomic profiling (ABPP) assay. In this assay, a complex proteome endogenously expressing LYPLA1/2 was incubated with test compound followed by reaction with a rhodamine-conjugated fluorophosphonate (FP-Rh) serine-hydrolase specific activity-based probe. The reaction products were separated by SDS-PAGE and visualized in-gel using a flatbed fluorescence scanner. The percentage activity remaining was determined by measuring the integrated optical density of the bands. […] Percent inhibition was calculated relative to a DMSO (no compound) control.
(§2) Protocol Summary: Mouse brain membrane proteome (50 μL reaction volume, 1 mg/mL in DPBS) was treated with 0.1-100 μM test compound (1 μL of a 50× stock in DMSO) for 30 minutes at 37° C. FP-Rh (1 μL of 50× stock in DMSO, Thermo #88318) was added to a final concentration of 2 μM. The reactions were incubated for 30 minutes at 25° C., quenched with 16 μL 4×SDS-PAGE loading buffer (reducing), separated by SDS-PAGE and visualized by in-gel fluorescent scanning. The percentage activity remaining was determined by measuring the integrated optical density of the bands relative to a DMSO-only (no compound) control. Assay Cutoff: Compounds with ≥50% inhibition of targets at 1 μM test compound concentration were considered active.
(§3) N-Hydroxy bicyclic hydantoin carbamates (Compounds 1-20) listed in Table 1 were subjected to gel-based competitive ABPP screening to assess SH reactivity against more than 20 FP-sensitive SHs visible by 1D SDS-PAGE separation and fluorescent detection in the mouse brain proteome (see FIG. 1). […] Compound treatment ([…], 30 minutes) was followed by labeling with SH-specific ABPP probe FP-Rh (2 μM, 30 minutes), 1D-SDS-PAGE, and in-gel fluorescent visualization of FP-labeled proteins. Assignment of LYPLA1/2 bands was based on correlation of molecular weights, expression and inhibition profiles with LC-MS/MS data and recombinant enzyme expression. Proteins were listed as anti-targets if at least 50% inhibition was observed as quantified relative to the DMSO control.
(§4) Compounds 1-20 were subjected to gel-based competitive ABPP profiling to assess potency and selectivity against several dozen FP-sensitive SHs in the mouse brain membrane proteome, which endogenously expresses LYPLA1 and LYPLA2, as well a diversity of potential SH anti-targets. Compounds were tested at 100 μM, 10 μM, 1 μM, and/or 0.1 μM compound concentration.

LYPLA1 = target: T2, LYPLA1 (Mus musculus, UniProt P97823); assay: as above; conditions: 30 min, one replicate; for inhibition at 0.1 µM: 0.1 μM compound, read-out: LYPLA1 % INH 0.1 μM; for inhibition at 1 µM: 1 μM compound, read-out: LYPLA1 % INH 1 μM; for inhibition at 10 µM: 10 μM compound, read-out: LYPLA1 % INH 10 μM; for inhibition at 100 µM: 100 μM compound, read-out: LYPLA1 % INH 100 μM
T2 construct: a complex proteome endogenously expressing LYPLA1/2 was incubated with test compound; from tissue; host or cells: mouse brain, membrane fraction
T2 sequence (P97823 whole entry): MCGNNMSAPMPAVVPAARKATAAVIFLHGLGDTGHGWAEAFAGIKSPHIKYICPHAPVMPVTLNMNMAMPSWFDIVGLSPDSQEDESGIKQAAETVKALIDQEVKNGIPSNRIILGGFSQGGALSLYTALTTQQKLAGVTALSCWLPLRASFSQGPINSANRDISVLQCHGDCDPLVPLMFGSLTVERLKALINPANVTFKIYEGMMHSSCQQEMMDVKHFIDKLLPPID
Experimental: as §1, §2, §3, §4

[1] = tested on: FP-sensitive SHs in the mouse brain membrane proteome; assay: Gel-based competitive ABPP in vitro, mouse brain membrane proteome, anti-targets; conditions: for Anti-target(s) 0.1 μM: SHs with at least 50% inhibition at 0.1 μM compound; for Anti-target(s) 1 μM: SHs with at least 50% inhibition at 1 μM compound; for Anti-target(s) 10 μM: SHs with at least 50% inhibition at 10 μM compound; for Anti-target(s) 100 μM: SHs with at least 50% inhibition at 100 μM compound
Experimental: as §1, §2, §3, §4

Structure (SMILES)	inhibition at 0.1 µM (LYPLA2) [%]	inhibition at 1 µM (LYPLA2) [%]	inhibition at 10 µM (LYPLA2) [%]	inhibition at 100 µM (LYPLA2) [%]	inhibition at 0.1 µM (LYPLA1) [%]	inhibition at 1 µM (LYPLA1) [%]	inhibition at 10 µM (LYPLA1) [%]	inhibition at 100 µM (LYPLA1) [%]	Anti-target(s) 0.1 μM [1]	Anti-target(s) 1 μM [1]	Anti-target(s) 10 μM [1]	Anti-target(s) 100 μM [1]
CC(C)(C)OC(=O)N1CCN2C(=O)N(OC(=O)N3CCN(CCc4ccccc4)CC3)C(=O)C2C1 (stereo not drawn) [Compound 17, tert-butyl 1,3-dioxo-2-(4-phenethylpiperazine-1-carbonyloxy)hexahydroimidazo[1,5-a]pyrazine-7(1H)-carboxylate]	0	0	50	75	0	0	75	90	ABHD6	ABHD6	ABHD6	FAAH,; also recorded: ABHD12,; also recorded: ABHD6
CC(C)(C)OC(=O)N1CCN2C(=O)N(OC(=O)N3CCCCC3)C(=O)C2C1 (stereo not drawn) [Compound 14, tert-butyl 1,3-dioxo-2-(piperidine-1-carbonyloxy)hexahydroimidazo[1,5-a]pyrazine-7(1H)-carboxylate]	0	0	0	25	0	0	0	25	ABHD6	ABHD6	ABHD6	APEH,; also recorded: ABHD6
CCN(C(=O)C1CCN(C(=O)ON2C(=O)C3CN(C(=O)OC(C)(C)C)CCN3C2=O)CC1)c1ccccc1 (stereo not drawn) [Compound 20, tert-butyl 2-(4-(ethyl(phenyl)carbamoyl)piperidine-1-carbonyloxy)-1,3-dioxohexahydroimidazo[1,5-a]pyrazine-7(1H)-carboxylate]	0	10	75	100	0	10	100	100	ABHD6	ABHD6	ABHD6	ABHD6
O=C(ON1C(=O)C2CN(CCc3ccccc3)CCN2C1=O)N1CCC(CCc2ccc(Cl)cc2)CC1 (stereo not drawn) [Compound 12, 1,3-dioxo-7-phenethylhexahydroimidazo[1,5-a]pyrazin-2(3H)-yl 4-(4-chlorophenethyl)piperidine-1-carboxylate]	0	25	95	100	0	25	95	100	ABHD6	ABHD6	FAAH,; also recorded: ABHD4,; also recorded: MAGL,; also recorded: ABHD6	FAAH,; also recorded: ABHD4,; also recorded: MAGL,; also recorded: ABHD6
CC(C)(C)OC(=O)N1CCN2C(=O)N(OC(=O)N3CCN(C(c4ccc(Cl)cc4)c4ccc(Cl)cc4)CC3)C(=O)C2C1 (stereo not drawn) [Compound 18, tert-butyl 2-(4-(bis(4-chlorophenyl)methyl)piperazine-1-carbonyloxy)-1,3-dioxohexahydroimidazo[1,5-a]pyrazine-7(1H)-carboxylate]	0	10	50	60	0	10	50	60	ABHD6	ABHD6	ABHD6	ABHD6
COc1ccc(C(=O)N2CCN3C(=O)N(OC(=O)N4CCC(CCc5ccc(Cl)cc5)CC4)C(=O)C3C2)cc1 (stereo not drawn) [Compound 11, 7-(4-methoxybenzoyl)-1,3-dioxohexahydroimidazo[1,5-a]pyrazin-2(3H)-yl 4-(4-chlorophenethyl)piperidine-1-carboxylate]		90	100	100		90	100	100		ABHD6	FAAH,; also recorded: ABHD12,; also recorded: MAGL,; also recorded: ABHD6	FAAH,; also recorded: ABHD12,; also recorded: MAGL,; also recorded: ABHD6
COC(=O)C1CCN(C(=O)ON2C(=O)C3CN(C(=O)OC(C)(C)C)CCN3C2=O)CC1 (stereo not drawn) [Compound 15, 1-(7-(tert-butoxycarbonyl)-1,3-dioxohexahydroimidazo[1,5-a]pyrazin-2(3H)-yl) 4-methyl piperidine-1,4-dicarboxylate]	0	0	0	25	0	0	0	25	ABHD6	ABHD6	ABHD6	ABHD6
Cc1ccc(C(=O)N2CCN3C(=O)N(OC(=O)N4CCC(CCc5ccc(Cl)cc5)CC4)C(=O)C3C2)cc1 (stereo not drawn) [Compound 8, 7-(4-methylbenzoyl)-1,3-dioxohexahydroimidazo[1,5-a]pyrazin-2(3H)-yl 4-(4-chlorophenethyl)piperidine-1-carboxylate]		75	100	100		75	100	100		ABHD6	FAAH,; also recorded: ABHD12,; also recorded: ABHD6	FAAH,; also recorded: ABHD12,; also recorded: MAGL,; also recorded: ABHD6
CC(C)(C)OC(=O)N1CCN2C(=O)N(OC(=O)N3CCC(C(=O)Nc4ccccc4)CC3)C(=O)C2C1 (stereo not drawn) [Compound 19, tert-butyl 1,3-dioxo-2-(4-(phenylcarbamoyl)piperidine-1-carbonyloxy)hexahydroimidazo[1,5-a]pyrazine-7(1H)-carboxylate]	0	0	0	25	0	0	10	50	ABHD6	ABHD6	ABHD6	FAAH,; also recorded: ABHD6
O=C(Cc1ccccc1)N1CCN2C(=O)N(OC(=O)N3CCC(CCc4ccc(Cl)cc4)CC3)C(=O)C2C1 (stereo not drawn) [Compound 6, 1,3-dioxo-7-(2-phenylacetyl)hexahydroimidazo[1,5-a]pyrazin-2(3H)-yl 4-(4-chlorophenethyl)piperidine-1-carboxylate]	25	95	100	100	25	95	100	100	ABHD6	FAAH,; also recorded: ABHD6	FAAH,; also recorded: MAGL,; also recorded: ABHD6	FAAH,; also recorded: MAGL,; also recorded: ABHD6
CN(C)c1ccc(C(=O)N2CCN3C(=O)N(OC(=O)N4CCC(CCc5ccc(Cl)cc5)CC4)C(=O)C3C2)cc1 (stereo not drawn) [Compound 10, 7-(4-(dimethylamino)benzoyl)-1,3-dioxohexahydroimidazo[1,5-a]pyrazin-2(3H)-yl4-(4-chlorophenethyl)piperidine-1-carboxylate]		75	100	100		75	100	100				

From patent publication US9981972B2, “N-hydroxy bicyclic hydantoin carbamates as tools for identification of serine hydrolase targets” (ABIDE THERAPEUTICS, INC., priority 2014, dated 2018)
